Assay results reported in PMC11472310, “Distinctive Immune Signatures Driven by Structural Alterations in Desmuramylpeptide NOD2 Agonists” (Journal of Medicinal Chemistry, 2024).
In brackets after ≈: the same amount, converted by molar mass. Where two headings read alike, the source gives them in different places.

Columns and labels:
[1] = Kinetic solubility (method of Hoelke et al.); type: physicochemical
Source text: Park et al. have shown that the degree of saturation of fatty acids exerts a profound impact on permeability of fatty acylated peptides—a higher degree of unsaturation results in higher permeability.[43] PUFA can also induce significant biophysical perturbations upon incorporation into membrane phospholipids.[67],[68] […] Given that the hydrophobicity of fatty acyl residues in general reduces as the number of unsaturated sites increases,[69],[70] we decided to ascertain how such structural modifications translate to the kinetic solubility of the molecule as a whole. […] The acylation with PUFA thus provides an elegant, albeit counterintuitive, approach, by which permeability of the molecule as a whole as well as its capacity for liposomal encapsulation can be enhanced without completely abolishing its aqueous solubility.

hNOD2 = target: T1, hNOD2 (Homo sapiens, UniProt Q9HC29); test: HEK-Blue NOD2 cell line reporter assay (NF-κB-inducible SEAP); type: cell-based
T1 construct: host or cells: HEK-Blue NOD2 cells (HEK293)
T1 sequence (Q9HC29 whole entry): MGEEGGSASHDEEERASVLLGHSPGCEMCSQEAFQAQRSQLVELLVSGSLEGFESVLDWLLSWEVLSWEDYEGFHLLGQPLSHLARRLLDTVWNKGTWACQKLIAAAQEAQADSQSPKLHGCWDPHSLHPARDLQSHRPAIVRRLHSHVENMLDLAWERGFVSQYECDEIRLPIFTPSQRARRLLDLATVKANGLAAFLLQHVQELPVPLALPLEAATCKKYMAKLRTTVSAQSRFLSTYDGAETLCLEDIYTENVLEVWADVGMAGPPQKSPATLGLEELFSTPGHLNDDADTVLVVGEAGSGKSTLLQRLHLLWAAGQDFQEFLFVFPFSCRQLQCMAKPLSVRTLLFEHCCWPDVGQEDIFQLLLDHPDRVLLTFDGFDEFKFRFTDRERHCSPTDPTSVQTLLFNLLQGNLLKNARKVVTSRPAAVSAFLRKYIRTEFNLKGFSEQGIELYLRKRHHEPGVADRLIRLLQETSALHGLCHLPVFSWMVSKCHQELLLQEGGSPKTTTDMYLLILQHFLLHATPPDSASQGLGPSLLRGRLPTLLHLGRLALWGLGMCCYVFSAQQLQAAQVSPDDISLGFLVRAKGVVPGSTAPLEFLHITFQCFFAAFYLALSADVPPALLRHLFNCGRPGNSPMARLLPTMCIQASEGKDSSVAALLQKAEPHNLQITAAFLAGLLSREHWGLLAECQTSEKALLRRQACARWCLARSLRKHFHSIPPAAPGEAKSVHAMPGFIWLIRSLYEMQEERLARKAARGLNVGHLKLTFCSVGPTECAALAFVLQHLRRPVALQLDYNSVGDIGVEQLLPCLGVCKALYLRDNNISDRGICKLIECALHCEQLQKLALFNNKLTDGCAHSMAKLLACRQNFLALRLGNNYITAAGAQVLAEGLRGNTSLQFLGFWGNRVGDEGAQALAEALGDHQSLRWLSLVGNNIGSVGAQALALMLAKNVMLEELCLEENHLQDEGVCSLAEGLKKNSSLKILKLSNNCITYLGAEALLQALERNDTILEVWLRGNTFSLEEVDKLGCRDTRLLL
Procedure: To assess the NOD2 agonistic potential of the synthesized desmuramylpeptides at a cellular level, we employed the HEK-Blue NOD2 cell line reporter assay, a validated and commercially available method. All synthesized compounds were evaluated for their dose-dependent activities to establish their EC50 values.
The HEK-Blue NOD1 and NOD2 cell line reporter assay was generated from HEK293 cells through cotransfection of the hNOD1 or hNOD2 gene, respectively, along with an NF-κB-inducible secreted embryonic alkaline phosphatase (SEAP) reporter gene. Upon activation of NOD1 or NOD2, NF-κB triggers the production of SEAP, which can be quantitatively measured colorimetrically. […] After 18 h of incubation at 37 °C with 5% CO2, SEAP activity was measured spectrophotometrically by absorbance at 630 nm (BioTek Synergy microplate reader; Winooski, VT, USA). EC50 values were determined using Prism software (version 9; GraphPad Software, CA, USA). Each experiment was conducted in duplicate and repeated in at least two independent biological replicates.

human PBMCs = test: Cytokine release from peripheral blood mononuclear cells (LEGENDplex panel); type: cell-based; settings: 18 h
Source text: The immunomodulatory effects of the selected desmuramylpeptides were examined in human primary peripheral blood mononuclear cells (PBMCs). This diverse mixture of immune cells provided a platform to investigate the effects of these NOD2 agonists within a physiologically relevant environment, encompassing other NOD2-interacting and downstream signaling proteins. […] Given that NOD2 activation often modulates the Toll-like receptor (TLR)-induced cytokine responses, we investigated the impact of combining desmuramylpeptides with lipopolysaccharide (LPS), a well-known TLR4 agonist, on cytokine secretion.[76]−[78]
The elicited cytokine profiles thus broadly reflect the structure–activity relationships obtained in the reporter gene assays.
Peripheral blood mononuclear cells were plated at a density of 1 × 10^6 cells/mL in 48-well plates containing 500 μL of growth medium. Cells were then treated with the compounds (2 μM) or the corresponding vehicle (0.1% DMSO), both in the absence and presence of LPS (10 ng/mL). Following an 18 h incubation period at 37 °C with 5% CO2, cell-free supernatants were collected and stored at −80 °C until analysis. […] Standard curves were constructed using recombinant cytokines provided in the kit. Data analysis was performed using Biolegend software Qognit and Prism (GraphPad, San Diego, CA, USA) software. The experiments were independently replicated four times. Statistical significance was determined using two-way analysis of variance (ANOVA) followed by Tukey’s multiple comparisons test.

K562 cancer cells = test: PBMC cytotoxicity against K562 cancer cells (flow cytometry); type: cell-based; settings: for cytotoxicity of PBMCs against K562 cells, cotreatment with LPS (relative to negative control) / Cytotoxicity (ratio to control), + LPS: 10 μM + LPS 1 μg/mL; for cytotoxicity of PBMCs against K562 cells, cotreatment with LPS (relative to negative control) / enhancement of cytotoxicity of PBMCs against K562 cells (relative to negative control): 18 h, then 4 h coincubation; for cytotoxicity of PBMCs against K562 cells, cotreatment with LPS (relative to negative control): 40:1; for Cytotoxicity (ratio to control), + LPS / Cytotoxicity (ratio to control): Table S2; for Cytotoxicity (ratio to control) / enhancement of cytotoxicity of PBMCs against K562 cells (relative to negative control): alone: compounds 10 μM, LPS 1 μg/mL, IL-2 200 U/mL; for enhancement of cytotoxicity of PBMCs against K562 cells (relative to negative control): effector:target 40:1
Procedure: In this study, we investigated the potential of desmuramylpeptides, both alone and in combination with LPS, to enhance the cytotoxic activity of PBMCs against cancer cells employing a flow-cytometry-based cytotoxicity assay based on coincubation of preactivated PBMCs with fluorescently labeled K562 cancer cells.[82] Among the diverse subpopulations within PBMCs, natural killer (NK) cells play a pivotal role in detecting and eliminating cancer cells. NOD2-mediated NK cell activity against cancer cells arises from both direct NOD2 agonist elicited cytolytic activity of NK cells[83] and indirect activation through cytokine release by other NOD2-responsive cells, such as monocytes, which comprise approximately 10% of PBMCs; such interactions potentially reinforce the immune response.[84] […] To that end, we utilized the entire PBMC population as effector cells rather than isolated NK cells, to mimic conditions more closely resembling the in vivo environment while K562 chronic myelogenous leukemia cells were used as the target cells in a 40:1 effector to target cell ratio.[87]
(§1) The PBMC cytotoxicity assays utilizing K562 cells were conducted following previously established methods, with some adjustments.[82] […] Meanwhile, K562 cells were stained with CFSE (Invitrogen, Carlsbad, CA, USA), washed twice with complete medium, and then added (1 × 10^4 cells per well) to the pretreated PBMCs to achieve a final effector cell to target tumor cell ratio of 40:1. Following a 4-h coincubation period at 37 °C with 5% CO2, cells were stained with Sytox blue dead cell stain (Invitrogen) and analyzed using an Attune NxT flow cytometer (Thermo Fisher Scientific, Waltham, MA, USA) along with FlowJo software (Tree Star, Inc., Ashland, OR, USA). Cells positive for both CFSE and Sytox blue were designated as dead K562 cells. PBMCs alone and CFSE-labeled cancer cells alone were also exposed to the compounds at equivalent concentrations and stained with Sytox blue to assess any direct cytotoxic effects of the compounds on PBMCs and cancer cells separately. Each experiment was conducted in duplicate and repeated in three independent biological replicates. Statistical analysis was performed using one-way ANOVA followed by Dunnett’s multiple comparisons test.

PBMCs = test: Direct cytotoxic effect of compounds on PBMCs (Sytox blue); type: cell-based; settings: Table S2; for Percent of dead PBMCs, + LPS: 10 μM + LPS 1 μg/mL; for Percent of dead PBMCs: alone: compounds 10 μM, LPS 1 μg/mL, IL-2 200 U/mL
Procedure: Additionally, PBMCs and cancer cells alone were treated with desmuramylpeptides to assess any direct cytotoxic effects on these cells.
as §1

[2] = HEK-Blue NOD2 cells, 18 h, NF-κB transcriptional activity (SEAP), read-out: EC50 (nM), NOD2 agonistic activity

**Q.** Which solubility kinetic [1] does the source give for `CCOC(=O)CC[C@@H](NC(=O)[C@@H](NC(=O)CNC(=O)/C=C/c1ccc(O)c(OC)c1)C(C)C)C(=O)OCC` [Compound 1] here?
**A.** 417 µM (≈ 223 µg/mL)

**Q.** Which “boost of NOD2 agonist activity on incorporation into SLN/NLC” value (hNOD2; 2-loaded SLNs and NLCs versus free 2) does the source give for `CCCCCCCCCCCC(=O)Oc1ccc(/C=C/C(=O)NCC(=O)N[C@H](C(=O)N[C@H](CCC(=O)OCC)C(=O)OCC)C(C)C)cc1OC` [Compound 2] here?
**A.** 5 factor

**Q.** What about the EC50 (hNOD2; HEK-Blue NOD2 cell line, SLN and NLC formulations by melt-emulsification) of the same molecule?
**A.** 10.5 nM

**Q.** What about the EC50 (hNOD2; [2]) of the same molecule?
**A.** 9.9 ± 0.69 nM

**Q.** And the “levels of LPS-induced IL-10” value (human PBMCs; 2 μM + LPS 10 ng/mL)?
**A.** amplified

**Q.** And the “production of MCP-1 and IFN-γ compared to the MDP/LPS combination” value (human PBMCs; 2 μM + LPS 10 ng/mL)?
**A.** significantly diminished production

**Q.** What about the “secretion of IL-1β, IL-10 and TGFβ compared to the MDP/LPS combination” value (human PBMCs; 2 μM + LPS 10 ng/mL) of the same molecule?
**A.** increased secretion

**Q.** And the “cytotoxicity of PBMCs against K562 cells, cotreatment with LPS (relative to negative control)” value (K562 cancer cells)?
**A.** 1.54 fold

**Q.** And the “Cytotoxicity (ratio to control), + LPS” value (K562 cancer cells)?
**A.** 1.54 ± 0.08

**Q.** And the “Cytotoxicity (ratio to control)” value (K562 cancer cells)?
**A.** 1.00 ± 0.05

**Q.** What about the “enhancement of cytotoxicity of PBMCs against K562 cells (relative to negative control)” value (K562 cancer cells) of the same molecule?
**A.** no activity

**Q.** And the “Percent of dead PBMCs, + LPS” value (PBMCs)?
**A.** 8.07% ± 0.47%

**Q.** And the “Percent of dead PBMCs” value (PBMCs)?
**A.** 0.96% ± 0.14%

**Q.** And the Kinetic solubility [1]?
**A.** insoluble

**Q.** What does the source list for `CCCCCCCCCCCCCCCC(=O)Oc1ccc(/C=C/C(=O)NCC(=O)N[C@H](C(=O)N[C@H](CCC(=O)OCC)C(=O)OCC)C(C)C)cc1OC` [Compound 9, Diethyl ((E)-3-(3-Methoxy-4-(palmitoyloxy)phenyl)acryloyl)glycyl-L-valyl-D-glutamate]?
**A.** EC50 (hNOD2; [2]): 382 ± 121 nM; Kinetic solubility [1]: insoluble

**Q.** For `CCOC(=O)[C@@H](CCC(=O)NCCCNCCCCNCCCN)NC(=O)[C@@H](NC(=O)CNC(=O)/C=C/c1ccc(O)c(OC)c1)C(C)C` [Compound 32, N^5-(3-((4-((3-Aminopropyl)amino)butyl)amino)propyl)-N^2-((E)-3-(4-hydroxy-3-methoxyphenyl)acryloyl)glycyl-L-valyl-D-glutaminate], which EC50 (hNOD2; [2]) is on record?
**A.** 8640 ± 1920 nM

**Q.** What about the EC50 (hNOD2; HEK-Blue NOD2 cells, 18 h, read-out: EC50, NOD2 agonistic activity (text)) of the same molecule?
**A.** 8600 nM

**Q.** What about the “amounts of IL-1β, IL-6, IL-10, TNF-α and IFN-γ compared to the MDP/LPS combination” value (human PBMCs; 2 μM + LPS 10 ng/mL) of the same molecule?
**A.** lesser amounts

**Q.** What about the “levels of LPS-induced IL-10” value (human PBMCs; 2 μM + LPS 10 ng/mL) of the same molecule?
**A.** opposite

**Q.** And the “levels of secreted MCP-1 compared to the MDP/LPS combination” value (human PBMCs; 2 μM + LPS 10 ng/mL)?
**A.** on par

**Q.** And the “production of proinflammatory cytokines and chemokines including IL-6, IL-8 and MCP-1” value (human PBMCs; 2 μM alone (no LPS))?
**A.** smaller increases

**Q.** And the “cytotoxicity of PBMCs against K562 cells, cotreatment with LPS (relative to negative control)” value (K562 cancer cells)?
**A.** 2.95 fold

**Q.** What about the “Cytotoxicity (ratio to control), + LPS” value (K562 cancer cells) of the same molecule?
**A.** 2.95 ± 0.41

**Q.** And the “Cytotoxicity (ratio to control)” value (K562 cancer cells)?
**A.** 1.10 ± 0.06

**Q.** And the “enhancement of cytotoxicity of PBMCs against K562 cells (relative to negative control)” value (K562 cancer cells)?
**A.** devoid of the capacity to induce cytotoxicity

**Q.** And the “Percent of dead PBMCs, + LPS” value (PBMCs)?
**A.** 7.20% ± 0.36%

**Q.** And the “Percent of dead PBMCs” value (PBMCs)?
**A.** 1.01% ± 0.22%

**Q.** With `CCOC(=O)[C@@H](CCC(=O)OCCN1CCOCC1)NC(=O)[C@@H](NC(=O)CNC(=O)/C=C/c1ccc(O)c(OC)c1)C(C)C` [Compound 35, 1-Ethyl 5-(2-Morpholinoethyl) ((E)-3-(4-hydroxy-3-methoxyphenyl)acryloyl)glycyl-L-valyl-D-glutamate] as the molecule, how does the EC50 (hNOD2; [2]) read?
**A.** 356 ± 24 nM

**Q.** And the “drop in activity compared to 1” value (hNOD2; ethyl ester replaced with morpholinoethyl)?
**A.** 4 factor

**Q.** What about the solubility kinetic [1] of the same molecule?
**A.** 209 µM (≈ 130 µg/mL)

**Q.** For `CCOC(=O)CC[C@@H](NC(=O)[C@@H](NC(=O)CNC(=O)/C=C/c1cc(OC)c(O)c(OC)c1)C(C)C)C(=O)OCC` [Compound 37, Diethyl ((E)-3-(4-Hydroxy-3,5-dimethoxyphenyl)acryloyl)glycyl-L-valyl-D-glutamate], which EC50 (hNOD2; [2]) is on record?
**A.** 96.1 ± 51.5 nM

**Q.** What about the solubility kinetic [1] of the same molecule?
**A.** 321 µM (≈ 182 µg/mL)
